Data on ten compounds can be found in US20160108098A1, “THERAPEUTIC PEPTIDES” (GLAXOSMITHKLINE INTELLECTUAL PROPERTY DEVELOPMENT LIMITED, priority 2013, published 2016).

Where no end group is shown, it is not given here.

A short description of assay [1]: cumulative food intake, diet-induced obese mice (Model B), BioDaQ system. Format: in vivo. The conditions noted are these: diet-induced obese C57BL/6 mice, 1 mg/kg subcutaneously, cumulative food intake after 6 h, relative to vehicle controls. As to the method: (§1) Cumulative food intake after 6 h was determined for the PYY analogs in either lean (Model A) or diet-induced obese (DIO) (Model B) C57BL/6 mice in a BioDaQ system for continuous monitoring of food intake (Research Diets Inc., New Brunswick, N.J.). […] Mice were placed singly into the BioDaQ cages and acclimatized for a minimum of 6 days and were allowed ad libitum access to food and water. Approximately 1 hour prior to lights-out, animals were dosed subcutaneously with either vehicle (20 mM Acetate buffer, pH 4.9 or 20% DMSO in water) or analogs dissolved in vehicle (1 mg/kg) (8 animals per group). Once all animals have been dosed, feeder gates were opened providing ad-libitum access to food. Continuous food intake was monitored and collected for 15 hours. […] P-values<0.05 were considered to indicate a significant difference between treatment groups.

The target in assay [2] is T1, human Neuropeptide Y receptor type 2 (Homo sapiens, UniProt P49146).
T1 construct: expressed in transfected cells; host or cells: melanophores; own knowledge: in the cited Jayawickreme protocol these are Xenopus laevis melanophores transfected with the receptor
T1 sequence (P49146 1-381): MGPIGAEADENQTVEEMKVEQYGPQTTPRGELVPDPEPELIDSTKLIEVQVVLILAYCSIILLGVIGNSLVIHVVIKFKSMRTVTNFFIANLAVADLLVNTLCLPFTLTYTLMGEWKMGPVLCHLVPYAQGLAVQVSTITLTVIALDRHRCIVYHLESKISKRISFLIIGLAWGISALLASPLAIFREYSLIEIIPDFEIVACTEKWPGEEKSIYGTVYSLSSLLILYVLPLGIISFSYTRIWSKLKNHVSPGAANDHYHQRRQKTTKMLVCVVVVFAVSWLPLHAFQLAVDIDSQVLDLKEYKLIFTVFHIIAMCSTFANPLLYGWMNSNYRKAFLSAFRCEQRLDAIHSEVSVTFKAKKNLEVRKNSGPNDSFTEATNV
Kind of assay: melanophore assay, potency at the human Neuropeptide Y receptor type 2. Format: cell-based. The conditions noted are these: read-out: hNPY Y2 pEC50 (converted).

Assay [3] in a line: cumulative food intake, lean mice (Model A), BioDaQ system. The conditions noted are these: lean C57BL/6 mice, 1 mg/kg subcutaneously, cumulative food intake after 6 h, relative to vehicle controls. It counts as in vivo. As to the method: as §1
Assay [4] in a line: chronic (41 days) efficacy study in diet-induced obese (DIO) Long Evans rats: body weight, body composition, food intake. It counts as in vivo, Long Evans rat. The following applies: for weight loss vs. vehicle: 40 days, subcutaneous osmotic pumps, ED50 doses; for fat mass lost from vehicle control: QMR, day 40 of treatment; for inhibition of cumulative food intake: treatment period, vs. vehicle control. As to the method: Rats were 17 weeks old at the start of the study. The rats were housed 1 per cage and given ad libitum access to TD.95217 chow and water, maintained on a 12 h light/dark cycle from 5:00 AM to 5:00 PM at 21° C. and 50% relative humidity and allowed to acclimate for at least 7 days prior to baseline measurements. Baseline fat mass and non-fat mass measurements were taken 3 days before the start of peptide infusion and on day 40 of treatment using a QMR instrument (Echo Medical Systems, Houston, Tex.). […] Each rat was implanted with two osmotic pumps subcutaneously in the scapula region containing vehicle or peptide according to their treatment group. Body weight and food intake were measured twice per week beginning three days before the 41-day treatment period. On day 41 of treatment, whole blood was collected by cardiac stick under isoflurane anesthesia. Plasma and serum were then prepared from the whole blood for serum chemistry analysis. All the data are presented as mean±SEM. The data were analyzed in either Prism (GraphPad Software, Inc., La Jolla, Calif.) or Excel using a Student's T-test to compare each group to the appropriate control group. P-values<0.05 were considered to indicate a significant difference between treatment groups.

Assay [5] is described as follows: chronic (26 days) efficacy study in Zucker Diabetic Fatty (ZDF) rats: glucose, HbA1c. Format: in vivo, Zucker Diabetic Fatty (ZDF) rat. The conditions noted are these: for ΔΔ % HbA1c / ΔΔGlucose: 26 days of treatment, change from baseline and vehicle control; for ΔΔGlucose: ED20 doses. An excerpt: Male ZDF rats were 12 weeks old at the start of the study (Charles River, Inc. Boston, Mass.). […] Baseline fat mass and non-fat mass measurements were taken 3 days before the start of peptide infusion and on day 26 of treatment using a QMR instrument (Echo Medical Systems, Houston, Tex.). […] P-values<0.05 were considered to indicate a significant difference between treatment groups.

On to `CC(C)C[C@H](NC(=O)[C@H](CO)NC(=O)[C@H](C)NC(=O)[C@H](Cc1ccc(O)cc1)NC(=O)[C@H](Cc1ccc(O)cc1)NC(=O)[C@H](CCCNC(=N)N)NC(=O)[C@H](CC(N)=O)NC(=O)[C@H](Cc1c[nH]c2ccccc12)NC(=O)[C@H](CCC(=O)O)NC(=O)[C@H](CCC(=O)O)NC(=O)[C@@H]1CCCN1C(=O)[C@H](CO)NC(=O)[C@H](C)NC(=O)[C@H](CC(=O)O)NC(=O)[C@H](CCCCN)NC(=O)CNC(=O)[C@@H]1CCCN1C(=O)[C@H](Cc1c[nH]cn1)NC(=O)[C@H](CCC(=O)O)NC(=O)[C@@H]1CCCN1C(=O)[C@H](CCCCN)NC(=O)[C@@H]1CCCN1)C(=O)N[C@@H](CCCNC(=N)N)C(=O)N[C@@H](CCCCN)C(=O)N[C@@H](Cc1ccc(O)cc1)C(=O)N[C@@H](CC(C)C)C(=O)N[C@@H](CC(N)=O)C(=O)N[C@@H](Cc1c[nH]c2ccccc12)C(=O)N[C@H](C(=O)N[C@H](C(=O)N[C@@H](CCCNC(=N)N)C(=O)N[C@@H](CCC(N)=O)C(=O)N[C@@H](CCCNC(=N)N)C(=O)N[C@@H](Cc1ccc(O)cc1)C(N)=O)[C@@H](C)O)C(C)C` [Example 25], for which the “% reduction in food intake, model B” value in assay [1] is given as −68%. Further, the EC50 in assay [2] is 0.251 nM.

Consider `CC[C@H](C)[C@H](N)C(=O)N[C@@H](CCCCN)C(=O)N1CCC[C@H]1C(=O)N1CCC[C@H]1C(=O)N[C@@H](Cc1ccc(O)cc1)C(=O)N1CCC[C@H]1C(=O)NCC(=O)N[C@@H](CS)C(=O)N[C@@H](CC(=O)O)C(=O)N[C@@H](C)C(=O)N[C@@H](CO)C(=O)N1CCC[C@H]1C(=O)N[C@@H](CCC(=O)O)C(=O)N[C@@H](CCC(=O)O)C(=O)N[C@@H](CCC(N)=O)C(=O)N[C@@H](CC(N)=O)C(=O)N[C@@H](CCCCN)C(=O)N[C@@H](Cc1ccc(O)cc1)C(=O)N[C@@H](Cc1ccc(O)cc1)C(=O)N[C@@H](C)C(=O)N[C@@H](CO)C(=O)N[C@@H](CC(C)C)C(=O)N[C@@H](CCCNC(=N)N)C(=O)N[C@@H](C)C(=O)N[C@@H](Cc1ccc(O)cc1)C(=O)N[C@@H](Cc1c[nH]c2ccccc12)C(=O)N[C@@H](CC(N)=O)C(=O)N[C@@H](CC(C)C)C(=O)N[C@H](C(=O)N[C@H](C(=O)N[C@@H](CCCNC(=N)N)C(=O)N[C@@H](CCC(N)=O)C(=O)N[C@@H](CCCNC(=N)N)C(=O)N[C@@H](Cc1ccc(O)cc1)C(N)=O)[C@@H](C)O)C(C)C` [Peptide 8], for which the “% change in food intake vs vehicle, model A” value (“% change in food intake” below) in assay [3] was -19%. Moreover, the EC50 in assay [2] was 0.501 nM.

For “H-IKPEAPLSKQLEEEAVRYYASLRHYLNLVTRQRY-NH2 [Peptide 2]”, in assay [3], the “% change in food intake” value was -12%. The EC50 in assay [2] was 2.51 nM.

“H-PKPEAPGCDASPEEWNRYYASLRKYLNWVTRQNY-NH2 [Peptide 1]”: in assay [3], the “% change in food intake” value was found to be 5%. In assay [2], the EC50 is 12.6 nM.

On to “H-PKPEAPGEDASPKEWNRYYASLRKYLNWVTRQRY-NH2 [Peptide 3]”, for which the “% change in food intake” value in assay [3] is -30%. Besides, the EC50 in assay [2] is 0.631 nM.

On to “H-PKPEAPLSKQLEEEAVRYYASLRHYLNLVTRQRY-NH2 [Peptide 21]”, for which the “% change in food intake” value in assay [3] was -2%. For the same compound, in assay [2], the EC50 was 2 nM.

Regarding “PKPEAPGCDASPEEWNRYYASLRKYLNWVTRQHY-NH2 [Peptide 14]”, the “% change in food intake” value in assay [3] was 24%. In assay [2], the EC50 is 6.31 nM.

With “PKPVAPGCDASPAELNRQYSDLRNYWNLVTRQRY-NH2 [Peptide 15]”, the “% change in food intake” value in assay [3] is -17%. The EC50 in assay [2] is 1.26 nM.

As for PYY(3-36)NH2, in assay [4], the “weight loss vs. vehicle” value is recorded as −1.3%, the “fat mass lost from vehicle control” value is −10.9 grams and the “inhibition of cumulative food intake” value was −0.7%. In addition, in assay [5], the “ΔΔ % HbA1c” value is 0.01 ± 0.4% and the ΔΔGlucose is recorded as −33.1 ± 17^ mg/dL.

With exendin-4, in assay [4], the “weight loss vs. vehicle” value is given as −11.3%, the “fat mass lost from vehicle control” value is −55.8 grams and the “inhibition of cumulative food intake” value is on record as −20.1%. Also, the “ED50 for weight loss” value in assay [4] (dose used for infusion) was found to be 0.15 mg/kg/day. For the same compound, in assay [5], the “ΔΔ % HbA1c” value is reported as −0.4 ± 0.2% and the ΔΔGlucose is -53.9 mg/dL. In assay [5] (listed as Exendin-4), the ΔΔGlucose is -53.9 ± 18.3 mg/dL. Moreover, in assay [5] (dose used for infusion), the “ED20 for HbA1c lowering” value amounted to 0.0055 mg/kg/day.
